What was measured:
[1] = system: Ps. aeruginosa ATCC 27853; assay: Sensitization to rifampin: growth inhibition around wells on LB plates containing rifampin; type: cell-based, Pseudomonas aeruginosa; details: 4 μg
E. coli IH3080 [2] = assay: Growth inhibition around wells on LB agar plates; type: cell-based, Escherichia coli
Protocol: Peptides synthesized in Example 1, all carrying at least two (2) but not more than three (3) positive charges, were studied for their ability to inhibit the growth of E. coli. This was tested employing LB agar (LB Agar Lennox, Difco, BD, Sparks, Md., U.S.A) plates. The indicator organism E. coli IH3080 (K1:O018) was an encapsulated strain originally isolated from a neonate suffering from meningitis (Vaara et al. 1984) and obtained from National Public Health Institute, Helsinki, Finland.
(§1) From an overnight-grown culture of IH3080 on LB agar, a suspension of approx. 10^8 cells/ml was prepared in 0.9% NaCl. Aliquots of this suspension were then pipetted on the agar plates and the plates were gently shaken to spread the suspension evenly on the entire surface of the plate. Thereafter, the unabsorbed part of the suspension was removed by using a Pasteur pipette. After the surface had dried, small wells (diameter, 2 mm) were drilled on the plates (five wells per plate) by using a sterile sharp-edged narrow metal tube, single-use pipette tip, and vacuum suction. An alternative method used a swab to spread the inoculum. […] Controls included 0.9% NaCl solution without the compound to be tested. The plates were then incubated for 18 h at 37° C. whereafter the diameters of growth inhibition zones around each well were measured; the diameter of the well itself was not reduced. Finally, the diameters were converted to surface areas of growth inhibition (in square mm).

A. baumannii ATCC 19606 = assay: Sensitization to rifampin: growth inhibition around wells on LB plates containing rifampin; type: cell-based, Acinetobacter baumannii; details: 4 μg
E. coli IH3080 [3] = assay: as above; type: cell-based, Escherichia coli; details: 4 μg of compound
Protocol: (§2) From an overnight-grown culture of IH3080 on LB agar, a suspension of approx. 10^8 cells/ml was prepared in 0.9% NaCl. Aliquots of this suspension were then pipetted on the agar plates and the plates were gently shaken to spread the suspension evenly on the entire surface of the plate. Thereafter, the unabsorbed part of the suspension was removed by using a Pasteur pipette. After the surface had dried, small wells (diameter, 2 mm) were drilled on the plates (five wells per plate) by using a sterile sharp-edged narrow metal tube, single-use pipette tip, and vacuum suction. An alternative method used a swab to spread the inoculum. Samples (4 μl and 10 μl) of the peptide solution in 0.9% NaCl (at concentrations of 1 μg/ml and 0.1 μg/ml) were then pipetted to the wells and the sample fluids were allowed to absorb. Controls included 0.9% NaCl solution without the compound to be tested. The plates were then incubated for 18 h at 37° C. whereafter the diameters of growth inhibition zones around each well were measured; the diameter of the well itself was not reduced. Finally, the diameters were converted to surface areas of growth inhibition (in square mm).

[4] = system: Acinetobacter baumannii ATCC 19606; assay: Growth inhibition around wells on LB agar plates; type: cell-based; details: A. baumannii ATCC 19606
Protocol: as §1
(§3) Direct antibacterial activity of sixteen NAB compounds against Acinetobacter baumannii ATCC 19606 and Pseudomonas aeruginosa ATCC 27853 was tested by using the susceptibility determination method described in Example 2. Five compounds (NAB7062, NAB734, NAB737, NAB739, and NAB740) had very notable activity against A. baumannii. […] The antibacterial activity of NAB739 and NAB740 were as strong as or even stronger than that of polymyxin B.

[5] = system: Pseudomonas aeruginosa ATCC 27853; assay: Growth inhibition around wells on LB agar plates; type: cell-based; details: Ps. aeruginosa ATCC 27853
Protocol: as §2, §3

Substance	growth inhibition around a well in the presence of rifampin ([1]; rifampin 0 μg/ml) [square millimeters]	growth inhibition around a well in the presence of rifampin ([1]; rifampin 0.1 μg/ml) [square millimeters]	growth inhibition around a well in the presence of rifampin ([1]; rifampin 0.3 μg/ml) [square millimeters]	growth inhibition around a well (E. coli IH3080 [2]; 4 μg of compound per well) [square millimeters]	growth inhibition around a well (E. coli IH3080 [2]; 10 μg of compound per well) [square millimeters]	growth inhibition around a well in the presence of rifampin (A. baumannii ATCC 19606; rifampin 0 μg/ml) [square millimeters]	growth inhibition around a well in the presence of rifampin (A. baumannii ATCC 19606; rifampin 0.1 μg/ml) [square millimeters]	growth inhibition around a well in the presence of rifampin (A. baumannii ATCC 19606; rifampin 0.3 μg/ml) [square millimeters]	growth inhibition around a well in the presence of rifampin (E. coli IH3080 [3]; rifampin 0 μg/ml) [square millimeters]	growth inhibition around a well in the presence of rifampin (E. coli IH3080 [3]; rifampin 0.1 μg/ml) [square millimeters]	growth inhibition around a well in the presence of rifampin (E. coli IH3080 [3]; rifampin 1.0 μg/ml) [square millimeters]	growth inhibition around a well ([4]; 4 μg) [square millimeters]	growth inhibition around a well ([4]; 10 μg) [square millimeters]	growth inhibition around a well ([5]; 4 μg) [square millimeters]	growth inhibition around a well ([5]; 10 μg) [square millimeters]
OA-Ala-Thr-DSer-cy[Dab-Dab-DPhe-Leu-Dab-Dab-Thr-] [NAB 749]	20	20	13	113	158	20	154	201	133	133	177	20	38	20	28
OA-Thr-Asn-cy[Dab-Dab-DPhe-Leu-Dab-Dab-Thr-] [NAB 746]	0	7	0	0	13	0	64	95	0	79	95	0	0	0	20
OA-Thr-Ser-cy[Dab-Dab-DPhe-Leu-Dab-Dab-Thr-] [NAB 743]	28	28	28	38	79	0	38	227	38	133	227	0	0	28	38
OA-Thr-Thr-DSer-cy[Dab-Dab-DPhe-Leu-Dab-Dab-Thr-] [NAB 748]	20	13	20	113	156	20	133	201	113	154	154	20	50	20	50
OA-Thr-Dab-cy[Dab-Dab-DPhe-Leu-Dab-Abu-Thr-] [NAB 717]	0	0	0	0	0	0	0	50	0	71	95	0	0	0	0
OA-Thr-Dab-cy[Dab-Dab-DPhe-Leu-Abu-Dab-Thr-] [NAB 716]	0	0	0	–	64	0	0	64	13	133	165	0	0	0	0
Polymyxin B nonapeptide [reference compound]	113	113	154	0	0	0	133	154	0	20	113	0	0	113	177

Reference: patent publication US8329645B2, “Polymyxin derivatives and uses thereof” (priority 2008, dated 2012)
